From ChEMBL document CHEMBL1201862, “PubChem BioAssay data set” (2004)
Active and inactive are the calls of the source.

Tests used:
Type in all cases: functional
[1] = target: Proto-oncogene tyrosine-protein kinase receptor Ret (Homo sapiens, UniProt P07949);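 note: measured within a kinome-wide profiling panel, RET as the panel member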
[2] = target: ALK tyrosine kinase receptor (Homo sapiens, UniProt Q9UM73);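 note: ALK tested as one member of a kinase panel screen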
[3] = target: cAMP-dependent protein kinase catalytic subunit alpha (Homo sapiens, UniProt P17612)
[4] = target: Protein kinase C theta type (Homo sapiens, UniProt Q04759); assay: Navigating the Kinome. Panel member name: PRKCQ
[5] = target: Rho-associated protein kinase 1 (Homo sapiens, UniProt Q13464);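 note: measured within a broad kinome-wide panel profiling many kinases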
[6] = target: Mitogen-activated protein kinase 14 (Homo sapiens, UniProt Q16539);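 note: part of a kinome-wide panel, MAPK14 entry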
[7] = target: Macrophage colony-stimulating factor 1 receptor (Homo sapiens, UniProt P07333);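 note: value comes from the Navigating the Kinome screening panel, CSF1R member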
[8] = target: Tyrosine-protein kinase JAK2 (Homo sapiens, UniProt O60674);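 note: JAK2 tested as one member of a kinase panel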
[9] = target: Dual specificity tyrosine-phosphorylation-regulated kinase 1B (Homo sapiens, UniProt Q9Y463); assay: Navigating the Kinome. Panel member name: DYRK1B
[10] = target: Mitogen-activated protein kinase kinase kinase kinase 2 (Homo sapiens, UniProt Q12851);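 note: measured as one member of a kinome-wide kinase panel, with MAP4K2 as the panel entry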
[11] = target: Insulin-like growth factor 1 receptor (Homo sapiens, UniProt P08069); assay: Navigating the Kinome. Panel member name: IGF1R
[12] = target: Fibroblast growth factor receptor 1 (Homo sapiens, UniProt P11362)
[13] = target: Cyclin-dependent kinase 8 (Homo sapiens, UniProt P49336); assay: Navigating the Kinome. Panel member name: CDK8
[14] = target: Serine/threonine-protein kinase PAK 4 (Homo sapiens, UniProt O96013);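 note: value obtained within a kinome profiling panel in which PAK4 was one of the panel members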
[15] = target: Tyrosine-protein kinase Lck (Homo sapiens, UniProt P06239);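 note: lck was assayed as one member of a kinase panel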
[16] = target: Cyclin-dependent kinase 5 (Homo sapiens, UniProt Q00535);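 note: CDK5 measured as one member of a kinase profiling panel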
[17] = target: Cyclin-dependent kinase 7 (Homo sapiens, UniProt P50613);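 note: value comes from a kinome-wide kinase profiling panel in which CDK7 is one member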
[18] = target: Activin receptor type-1 (Homo sapiens, UniProt Q04771); assay: Navigating the Kinome. Panel member name: ACVR1
[19] = target: Serine/threonine-protein kinase TBK1 (Homo sapiens, UniProt Q9UHD2); assay: Navigating the Kinome. Panel member name: TBK1
[20] = target: Inhibitor of nuclear factor kappa-B kinase subunit epsilon (Homo sapiens, UniProt Q14164); assay: Navigating the Kinome. Panel member name: IKBKE
[21] = target: Mitogen-activated protein kinase kinase kinase kinase 4 (Homo sapiens, UniProt O95819)
[22] = target: Glycogen synthase kinase-3 alpha (Homo sapiens, UniProt P49840);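 note: GSK3A result taken from a broad kinome-wide kinase panel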
[23] = target: T1, Sentrin-specific protease 8 (Homo sapiens, UniProt Q96LD8);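 note: luminescence read-out of SENP8 inhibition, dose-response confirmation following an ultra-high-throughput screen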
T1 sequence (Q96LD8 whole entry): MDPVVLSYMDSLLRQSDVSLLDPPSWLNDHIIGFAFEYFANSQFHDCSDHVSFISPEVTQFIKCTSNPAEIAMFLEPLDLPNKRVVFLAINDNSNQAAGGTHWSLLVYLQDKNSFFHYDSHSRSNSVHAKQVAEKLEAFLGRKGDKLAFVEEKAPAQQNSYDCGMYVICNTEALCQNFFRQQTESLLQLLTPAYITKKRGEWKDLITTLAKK

[24] = target: T2, Sentrin-specific protease 6 (Homo sapiens, UniProt Q9GZR1);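 note: Luminescence-based dose-response confirmatory assay of SENP6 inhibition, following up an ultra-high-throughput screen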
T2 sequence (Q9GZR1 whole entry): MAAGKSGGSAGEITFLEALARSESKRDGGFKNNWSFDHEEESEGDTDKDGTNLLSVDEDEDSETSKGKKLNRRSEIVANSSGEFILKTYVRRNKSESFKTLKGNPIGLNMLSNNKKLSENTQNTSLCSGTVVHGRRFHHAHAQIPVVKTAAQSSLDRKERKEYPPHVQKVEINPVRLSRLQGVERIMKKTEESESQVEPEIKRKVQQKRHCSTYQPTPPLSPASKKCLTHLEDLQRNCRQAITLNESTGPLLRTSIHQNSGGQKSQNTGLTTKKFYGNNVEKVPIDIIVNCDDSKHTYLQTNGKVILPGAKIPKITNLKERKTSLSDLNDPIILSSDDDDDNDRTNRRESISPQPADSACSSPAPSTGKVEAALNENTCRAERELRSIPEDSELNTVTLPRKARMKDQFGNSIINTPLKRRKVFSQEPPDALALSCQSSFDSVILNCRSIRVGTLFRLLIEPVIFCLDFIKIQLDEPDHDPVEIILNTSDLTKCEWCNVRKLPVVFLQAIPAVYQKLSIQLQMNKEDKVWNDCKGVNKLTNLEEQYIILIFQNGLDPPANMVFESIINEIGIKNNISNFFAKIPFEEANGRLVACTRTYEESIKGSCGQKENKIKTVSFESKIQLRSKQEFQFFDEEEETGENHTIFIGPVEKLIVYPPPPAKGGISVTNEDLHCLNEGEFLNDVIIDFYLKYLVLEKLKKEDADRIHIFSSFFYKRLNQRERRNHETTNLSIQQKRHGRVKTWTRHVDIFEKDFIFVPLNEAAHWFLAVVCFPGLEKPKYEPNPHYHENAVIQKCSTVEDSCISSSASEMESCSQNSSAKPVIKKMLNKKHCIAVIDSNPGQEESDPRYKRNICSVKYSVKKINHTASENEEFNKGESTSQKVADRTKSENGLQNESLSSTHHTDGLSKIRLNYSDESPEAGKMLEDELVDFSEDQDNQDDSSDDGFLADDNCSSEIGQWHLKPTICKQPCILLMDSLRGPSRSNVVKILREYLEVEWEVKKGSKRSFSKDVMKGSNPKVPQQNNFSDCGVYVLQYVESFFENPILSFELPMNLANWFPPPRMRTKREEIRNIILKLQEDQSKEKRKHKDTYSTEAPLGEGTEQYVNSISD

[25] = target: T3, Caspase-3 (Homo sapiens, UniProt P42574);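 note: Dose-response selectivity test against caspase-3 for candidate inhibitors of sentrin-specific proteases (SENPs)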
T3 sequence (P42574 whole entry): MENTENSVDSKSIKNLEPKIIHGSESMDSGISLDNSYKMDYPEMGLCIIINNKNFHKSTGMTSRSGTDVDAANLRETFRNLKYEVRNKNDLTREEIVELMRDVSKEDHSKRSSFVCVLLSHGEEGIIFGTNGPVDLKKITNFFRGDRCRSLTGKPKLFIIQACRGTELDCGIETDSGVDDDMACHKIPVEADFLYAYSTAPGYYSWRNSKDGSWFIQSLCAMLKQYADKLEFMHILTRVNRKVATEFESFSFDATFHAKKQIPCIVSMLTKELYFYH

Chain of Rho-associated protein kinase 1 (Q13464 whole entry): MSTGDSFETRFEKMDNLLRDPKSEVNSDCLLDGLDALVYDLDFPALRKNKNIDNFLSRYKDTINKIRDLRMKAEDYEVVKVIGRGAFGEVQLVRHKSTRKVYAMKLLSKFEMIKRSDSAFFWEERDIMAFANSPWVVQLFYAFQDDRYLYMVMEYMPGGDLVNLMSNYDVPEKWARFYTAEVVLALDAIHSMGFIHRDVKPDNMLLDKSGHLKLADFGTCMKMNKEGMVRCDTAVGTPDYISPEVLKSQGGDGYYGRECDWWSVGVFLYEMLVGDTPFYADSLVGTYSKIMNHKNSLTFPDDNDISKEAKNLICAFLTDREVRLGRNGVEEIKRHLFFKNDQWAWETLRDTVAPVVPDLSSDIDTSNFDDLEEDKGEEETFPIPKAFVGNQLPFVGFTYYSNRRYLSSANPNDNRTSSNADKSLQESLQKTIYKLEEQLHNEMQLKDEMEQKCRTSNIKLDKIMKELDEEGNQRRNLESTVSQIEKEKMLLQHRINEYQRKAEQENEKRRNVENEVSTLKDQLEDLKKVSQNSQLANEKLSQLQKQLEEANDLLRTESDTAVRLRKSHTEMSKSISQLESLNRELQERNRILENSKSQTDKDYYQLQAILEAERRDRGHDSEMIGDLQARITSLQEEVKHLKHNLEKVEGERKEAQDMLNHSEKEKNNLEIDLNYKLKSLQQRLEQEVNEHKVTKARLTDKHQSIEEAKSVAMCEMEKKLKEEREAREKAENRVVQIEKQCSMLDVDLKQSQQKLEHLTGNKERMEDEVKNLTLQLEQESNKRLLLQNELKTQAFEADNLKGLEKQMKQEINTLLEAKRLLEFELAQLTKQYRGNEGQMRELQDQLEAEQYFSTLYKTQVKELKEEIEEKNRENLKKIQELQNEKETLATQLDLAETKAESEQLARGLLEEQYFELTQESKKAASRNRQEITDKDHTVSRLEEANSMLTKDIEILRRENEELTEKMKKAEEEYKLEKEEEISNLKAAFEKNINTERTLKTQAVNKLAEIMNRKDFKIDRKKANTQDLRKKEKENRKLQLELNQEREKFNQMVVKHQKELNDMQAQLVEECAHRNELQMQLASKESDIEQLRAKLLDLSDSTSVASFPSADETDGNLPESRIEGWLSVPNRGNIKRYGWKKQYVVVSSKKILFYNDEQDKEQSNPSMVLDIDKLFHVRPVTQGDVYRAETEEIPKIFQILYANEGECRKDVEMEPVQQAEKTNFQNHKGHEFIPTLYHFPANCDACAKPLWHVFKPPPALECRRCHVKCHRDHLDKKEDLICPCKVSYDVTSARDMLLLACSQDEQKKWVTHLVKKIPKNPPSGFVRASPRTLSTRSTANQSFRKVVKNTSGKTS
Chain of Proto-oncogene tyrosine-protein kinase receptor Ret (P07949 whole entry): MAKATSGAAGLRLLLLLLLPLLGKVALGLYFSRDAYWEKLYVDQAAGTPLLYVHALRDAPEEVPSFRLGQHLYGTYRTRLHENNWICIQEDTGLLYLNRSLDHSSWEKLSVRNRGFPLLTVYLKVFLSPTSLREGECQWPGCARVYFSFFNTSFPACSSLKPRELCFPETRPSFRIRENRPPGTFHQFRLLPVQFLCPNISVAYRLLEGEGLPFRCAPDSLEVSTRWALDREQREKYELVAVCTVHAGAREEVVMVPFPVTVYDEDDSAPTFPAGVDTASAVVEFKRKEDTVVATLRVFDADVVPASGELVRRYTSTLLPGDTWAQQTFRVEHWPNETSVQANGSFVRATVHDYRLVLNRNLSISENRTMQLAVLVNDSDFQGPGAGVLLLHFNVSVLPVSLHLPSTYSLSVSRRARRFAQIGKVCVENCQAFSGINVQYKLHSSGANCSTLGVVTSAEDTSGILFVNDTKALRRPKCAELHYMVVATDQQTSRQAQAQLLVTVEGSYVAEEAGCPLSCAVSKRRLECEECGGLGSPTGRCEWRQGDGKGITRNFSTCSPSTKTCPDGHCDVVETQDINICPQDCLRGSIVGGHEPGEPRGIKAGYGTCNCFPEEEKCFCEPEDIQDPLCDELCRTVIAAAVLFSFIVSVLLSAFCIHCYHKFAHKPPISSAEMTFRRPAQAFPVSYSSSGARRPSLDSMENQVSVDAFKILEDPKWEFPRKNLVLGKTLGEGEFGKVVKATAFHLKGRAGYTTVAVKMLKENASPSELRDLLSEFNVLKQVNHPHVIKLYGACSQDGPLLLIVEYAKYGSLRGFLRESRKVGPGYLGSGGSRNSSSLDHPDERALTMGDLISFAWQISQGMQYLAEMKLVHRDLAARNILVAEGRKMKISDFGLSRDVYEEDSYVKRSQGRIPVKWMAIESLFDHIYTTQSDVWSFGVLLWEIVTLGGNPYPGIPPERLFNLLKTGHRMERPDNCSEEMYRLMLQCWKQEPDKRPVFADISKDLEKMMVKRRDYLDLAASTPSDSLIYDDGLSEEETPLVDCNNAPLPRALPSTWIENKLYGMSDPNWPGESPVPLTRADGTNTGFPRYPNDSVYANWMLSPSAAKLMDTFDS
Chain of ALK tyrosine kinase receptor (Q9UM73 whole entry): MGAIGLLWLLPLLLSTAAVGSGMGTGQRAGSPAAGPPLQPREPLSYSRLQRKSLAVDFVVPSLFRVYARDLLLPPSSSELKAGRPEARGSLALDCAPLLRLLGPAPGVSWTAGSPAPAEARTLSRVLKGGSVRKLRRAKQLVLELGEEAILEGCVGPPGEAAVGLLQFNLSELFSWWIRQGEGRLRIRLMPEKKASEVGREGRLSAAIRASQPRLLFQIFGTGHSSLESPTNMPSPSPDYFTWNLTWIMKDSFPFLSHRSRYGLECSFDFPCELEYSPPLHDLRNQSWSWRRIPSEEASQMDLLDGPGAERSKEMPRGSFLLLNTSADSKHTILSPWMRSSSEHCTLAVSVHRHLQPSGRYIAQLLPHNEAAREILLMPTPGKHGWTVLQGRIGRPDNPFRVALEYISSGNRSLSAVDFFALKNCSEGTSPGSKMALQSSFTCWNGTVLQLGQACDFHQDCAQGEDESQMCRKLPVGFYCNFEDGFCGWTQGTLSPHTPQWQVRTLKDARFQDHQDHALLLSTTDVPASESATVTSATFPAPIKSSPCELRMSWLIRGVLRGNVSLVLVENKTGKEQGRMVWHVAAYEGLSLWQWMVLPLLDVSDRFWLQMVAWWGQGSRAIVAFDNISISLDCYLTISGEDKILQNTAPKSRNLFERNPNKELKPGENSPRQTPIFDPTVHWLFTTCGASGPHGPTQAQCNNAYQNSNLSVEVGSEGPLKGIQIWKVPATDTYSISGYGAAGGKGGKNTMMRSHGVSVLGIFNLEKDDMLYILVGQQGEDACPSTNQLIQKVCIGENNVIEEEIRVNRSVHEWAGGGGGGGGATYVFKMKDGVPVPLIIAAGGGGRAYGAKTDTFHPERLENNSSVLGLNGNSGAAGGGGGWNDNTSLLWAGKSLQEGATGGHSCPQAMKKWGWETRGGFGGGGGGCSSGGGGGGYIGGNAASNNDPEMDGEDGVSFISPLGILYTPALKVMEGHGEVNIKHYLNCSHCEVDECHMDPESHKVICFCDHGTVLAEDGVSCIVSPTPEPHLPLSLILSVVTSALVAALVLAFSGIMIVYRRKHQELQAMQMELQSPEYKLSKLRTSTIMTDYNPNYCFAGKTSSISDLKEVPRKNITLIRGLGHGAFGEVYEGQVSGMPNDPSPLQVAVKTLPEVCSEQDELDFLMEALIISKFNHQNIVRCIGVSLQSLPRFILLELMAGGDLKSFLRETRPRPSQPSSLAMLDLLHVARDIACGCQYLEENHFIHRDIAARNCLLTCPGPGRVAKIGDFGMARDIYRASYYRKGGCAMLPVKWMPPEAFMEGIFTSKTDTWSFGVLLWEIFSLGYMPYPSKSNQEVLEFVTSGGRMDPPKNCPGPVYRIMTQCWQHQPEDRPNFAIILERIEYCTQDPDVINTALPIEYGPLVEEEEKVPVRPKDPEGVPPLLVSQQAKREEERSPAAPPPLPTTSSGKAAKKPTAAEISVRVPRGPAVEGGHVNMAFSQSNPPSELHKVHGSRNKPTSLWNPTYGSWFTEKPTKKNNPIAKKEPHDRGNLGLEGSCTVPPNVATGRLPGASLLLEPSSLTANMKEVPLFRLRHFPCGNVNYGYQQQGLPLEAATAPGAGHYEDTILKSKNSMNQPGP
Chain of Dual specificity tyrosine-phosphorylation-regulated kinase 1B (Q9Y463 whole entry): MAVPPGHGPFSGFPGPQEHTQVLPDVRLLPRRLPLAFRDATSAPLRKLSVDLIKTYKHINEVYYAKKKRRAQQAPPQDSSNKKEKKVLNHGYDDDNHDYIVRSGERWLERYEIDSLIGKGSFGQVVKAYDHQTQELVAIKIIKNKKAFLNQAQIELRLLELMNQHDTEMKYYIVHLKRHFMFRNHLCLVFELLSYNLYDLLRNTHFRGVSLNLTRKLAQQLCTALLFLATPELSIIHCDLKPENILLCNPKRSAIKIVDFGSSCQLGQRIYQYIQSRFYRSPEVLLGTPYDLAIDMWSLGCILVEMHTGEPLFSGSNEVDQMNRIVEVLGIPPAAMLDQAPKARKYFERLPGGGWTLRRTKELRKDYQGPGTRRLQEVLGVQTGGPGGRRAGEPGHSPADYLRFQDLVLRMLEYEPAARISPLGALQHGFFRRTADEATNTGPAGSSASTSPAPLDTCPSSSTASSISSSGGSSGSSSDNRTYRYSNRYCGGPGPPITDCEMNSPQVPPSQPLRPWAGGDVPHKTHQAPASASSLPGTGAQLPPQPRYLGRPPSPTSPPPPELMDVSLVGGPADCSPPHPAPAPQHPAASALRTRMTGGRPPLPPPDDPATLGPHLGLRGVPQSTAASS
Chain of Cyclin-dependent kinase 5 (Q00535 whole entry): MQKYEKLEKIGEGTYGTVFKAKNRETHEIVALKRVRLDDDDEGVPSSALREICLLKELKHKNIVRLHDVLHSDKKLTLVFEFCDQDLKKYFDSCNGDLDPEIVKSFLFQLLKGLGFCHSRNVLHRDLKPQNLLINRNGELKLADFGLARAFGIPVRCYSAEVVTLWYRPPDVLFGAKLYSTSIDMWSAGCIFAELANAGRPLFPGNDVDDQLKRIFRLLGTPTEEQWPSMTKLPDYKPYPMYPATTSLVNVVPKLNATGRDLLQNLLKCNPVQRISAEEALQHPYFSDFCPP

SMILES | Ki [1] | Ki [2] | Ki [3] | Ki [4] | Ki [5] | Ki [6] | Ki [7] | Ki [8] | Ki [9] | Ki [10] | Ki [11] | Ki [12] | Ki [13] | Ki [14] | Ki [15] | Ki [16] | Ki [17] | Ki [18] | Ki [19] | Ki [20] | further results
CN1CCC(c2c(O)cc(O)c3c(=O)cc(-c4ccccc4Cl)oc23)C(O)C1 (stereo not given) | > 2000 nM (inactive) | 631 nM (active) | > 3980 nM (inactive) | 79.4 nM (active) | > 6310 nM (inactive) | 3980 nM (active) | > 2510 nM (inactive) | > 2000 nM (inactive) | 126 nM (active) | 1000 nM (active) | > 2000 nM (inactive) |  |  |  |  |  |  |  |  |  | pKi [2]: 6.2
Cc1ccc(C)c(NC(=O)c2cc(-c3ccco3)nc3ccccc23)c1 | 3160 nM (active) | > 6310 nM (inactive) |  |  | > 3980 nM (inactive) | > 3980 nM (inactive) |  |  | 1000 nM (active) |  |  | 1580 nM (active) | 1000 nM (active) | 3980 nM (active) | > 6310 nM (inactive) | 1000 nM (active) | 3980 nM (active) | 3160 nM (active) | > 3160 nM (inactive) | 3160 nM (active) | Ki [21]: > 5010 nM (inactive); Ki [22]: > 3980 nM (inactive)
CC(/C=C1\SC(=S)N(NS(=O)(=O)c2ccc(C)cc2)C1=O)=C\c1ccccc1 |  |  |  |  |  |  |  |  |  |  |  |  |  |  |  |  |  |  |  |  | IC50 [23]: 3940 nM (active); IC50 [24]: 3120 nM (active); IC50 [25]: 12900 nM (active)
Cc1ccc(NC2=C(NCCO)C(=O)c3ccccc3C2=O)cc1 |  |  |  |  |  |  |  |  |  |  |  |  |  |  |  |  |  |  |  |  | IC50 [23]: 9120 nM (active); IC50 [24]: 6660 nM (active); IC50 [25]: 11400 nM (active)
COc1ccc(C2=NNc3cccc4c(OC)ccc2c34)cc1OC | 501 nM (active) | 1580 nM (active) | > 1260 nM (inactive) | 1580 nM (active) | 501 nM (active) |  | > 2510 nM (inactive) | 1000 nM (active) | 316 nM (active) | 2000 nM (active) | > 2510 nM (inactive) | > 3980 nM (inactive) | > 3980 nM (inactive) | 2000 nM (active) | > 6310 nM (inactive) | 251 nM (active) | > 3980 nM (inactive) | 631 nM (active) | 631 nM (active) | 501 nM (active) | Ki [21]: 398 nM (active); Ki [22]: > 3980 nM (inactive)
